This note sets out measurements from patent US20170266123A1, “COATED PARTICLES FOR DRUG DELIVERY” (Dana-Farber Cancer Institute, Inc., priority 2014, published 2017).

By IC50 is commonly meant the midpoint of a concentration-inhibition curve. A high value points to a need for much substance.

Series [1] concerns 4T1 cells. Briefly: Viability of 4T1 cells exposed to Dox or Dox-laden nanoparticles through matrigel. The format is cell-based. Conditions: 500 ng/mL Dox; 3, 6 and 24 hours. The procedure: Nanoparticles with doxorubicin in the core were formed as described in Example 1, except doxorubicin was added to the organic solvent. The particles were coated as described in Example 10. To test the cell viability for cells exposed to doxorubicin particles, 500 ng/mL of Dox or Dox-laden nanoparticles were added to matrigel on top chamber of a 24 well plates seeded with 4T1 cells. Plates were incubated at 37° C., while gently shaken. The viability was measured at 3 hours, 6 hours, and 24 hours. Cell viability was determined as described in Example 5. For the mammosphere assay, 4T1 cells were seeded at 1000 cells/150 uL/well in 96 well ultra-low adherence plate. The remaining 4T1 cells after treatment were harvested and filtered and the number of mammospheres counted using microscopy.

Series [2] has as its system SKOV-3 (human ovarian cancer). Briefly: PTX cytotoxicity, MTT assay, SKOV3. It counts as cell-based. Conditions: SK-OV-3, SKOV3, 72 hours. The protocol: (§1) Cells were seeded at a density of 10,000 cells per well in a 96-well and incubated overnight in 200 μL of complete medium. The culture medium was then replaced with 198 μL of fresh medium, two free drug/DMSO solution or NP suspensions in the final concentration ranging from 0.001 to 10,000 nM. After 72 hours of incubation, the medium was replaced with 100 μL of fresh medium containing 13% MTT and incubated for 3.5 hours. Finally, 100 μL of the solubilization/stop solution comprising 20% SDS, 0.02% v/v acetic acid, and 50% v/v DMSO was added to each well, and the absorbance was read at 560 nm by the microplate reader. Cell viability was calculated by dividing the absorbance of treated cells by that of untreated cells after subtracting the absorbance of cell-free medium from each. Here, the untreated cells were those provided with no drug but handled equally otherwise, and the cell-free medium was the medium mixed with MTT solution and stop-solution without cells.
(§2) Cell viability was determined as described in Example 5.

The subject of series [3] is Calu6 (human lung cancer). Briefly: PTX cytotoxicity, MTT assay, Calu6. The settings on record: Calu-6, Calu6, 72 hours. It counts as cell-based. The procedure:
as §1, §2

In series [4] the test system is BR5FVB1-Akt (murine ovarian cancer). Kind of series: PTX cytotoxicity, MTT assay, BR5FVB1-Akt. The format is cell-based. Conditions: Mus musculus, 72 hours. The protocol:
as §1, §2

Series [5] is described as follows: PTX content in murine blood and peritoneal cavity after IP dosing. It counts as in vivo. Conditions: female, FVB, mouse, mice, IP 5 mg/kg, 3 hours post dosing. The protocol:
Six week-old female FVB mice were obtained from Charles River Laboratory (Boston, USA). Mice were housed in a pathogen-free facility in accordance with the standards of the Dana-Farber Cancer Institute. All animal experiments were approved by the Institute's IACUC. Mice were kept in groups of 4-5 per cage in a 12 hour light/12 hour dark cycle and housed at 25° C. with 50% relative humidity. […] Mice were anaesthetized, and blood samples were collected via retro-orbital bleeding 3 hours post dosing. Blood samples were kept on ice until centrifugation. Samples were centrifuged at 1,400 RCF for 10 min, and plasma was collected. After blood sample collection, mice were sacrificed, and their peritoneal cavities were washed thrice post-mortem with PBS. Plasma and peritoneal washes were flash frozen with liquid nitrogen and lyophilized. The lyophilized powders were rehydrated in 300 μL water and extracted with tert-butyl methyl ether (tBME). The organic solvent was dried under nitrogen.

Series [6] has as its system BR5FVB1-Akt cells. Kind of series: Survival study in immunocompetent murine model of ovarian cancer. It counts as in vivo, mouse. Conditions: FVB mice, IP 5 mg/kg twice weekly, five doses. The protocol:
The BR5FVB1-Akt mouse ovarian cancer cell line was cultured in DMEM supplemented with 10% FBS and 1% penicillin/streptomycin at 37° C. with 5% CO2. Subconfluent BR5FVB1-Akt cells were trypsinized, washed, and suspended in opti-MEM as a single-cell suspension. Six week-old female FVB mice were injected IP with a total volume of 400 μl opti-MEM containing 3.75×10^6 BR5FVB1-Akt cells.
Mice were sacrificed by CO2 asphyxiation upon ascites development. Their peritoneal cavities were opened postmortem to observe tumor location and extent of metastasis in the peritoneal region. All FVB mice inoculated with BR5FVB1-Akt cells developed tumors. Tumors developed gradually and manifested by formation of ascites in the peritoneal cavity. Tumors were detectable post-mortem as nodules of various sizes and number on the peritoneal wall or adhered to the intestine.
Statistical analysis was performed with GraphPad Prism 5 (La Jolla, Calif., USA). Statistical significance among groups was determined by one-way ANOVA, and pairs were compared by Tukey's multi-comparison test. Survival groups were compared using a Mantel-Cox test.

As for `COc1cccc2c1C(=O)c1c(O)c3c(c(O)c1C2=O)C[C@@](O)(C(=O)CO)C[C@@H]3O[C@H]1C[C@H](N)[C@H](O)[C@H](C)O1` [Dox in solution, doxorubicin], the viability of cells result in series [1] is on record as “reduced viability of cells”.
`CC(=O)O[C@H]1C(=O)[C@@]2(C)[C@H]([C@H](OC(=O)c3ccccc3)[C@]3(O)C[C@H](OC(=O)[C@H](O)[C@@H](NC(=O)c4ccccc4)c4ccccc4)C(C)=C1C3(C)C)[C@]1(OC(C)=O)CO[C@@H]1C[C@@H]2O` [PTX, paclitaxel]: the figures for the IC50 in series [2], in series [3] and in series [4] were about 10 nM, about 10 nM and about 100 nM, respectively. Also, the figures for the concentration at 3 h in series [5] (peritoneal lavage (PBS wash of peritoneal cavity)) and in series [5] (plasma) were 4500 ± 1300 ng/mL and 9500 ± 1900 ng/mL, respectively. Further, in series [6], the tumor onset result was “developed tumors at similar time points”.
